Like-named read-outs stand apart in the source and are kept apart here.
Key:
[1] = mouse, in vivo; for CA (pooled): BChE-KO, 5XFAD-BChE-KO (pooled)
[2] = type: in vivo; settings: 5XFAD mouse, IV, 3D SPECT

Compound	CA (pooled) ([1]; 5XFAD, WT) [% Cmax]	time of peak radioligand uptake in brain ([1]; WT and BChE-KO) [minutes post-injection]	t1/2 clearance ([1]; WT) [min]	kclearance (pooled) [1] [min⁻¹]	time of peak radioligand uptake in brain ([1]; 5XFAD and WT) [minutes post-injection]	decrease in kclearance ([1]; 5XFAD compared to WT) [%]	increase in t1/2clearance ([1]; 5XFAD compared to WT) [%]	t1/2 clearance ([1]; 5XFAD) [min]	t1/2 clearance [1]	time of peak radioligand uptake in brain ([1]; 5XFAD and WT (wild-type)) [minutes post-injection]	CA (asymptotic tracer concentration) ([1]; 5XFAD-BChE-KO) [% Cmax]	distribution of the tracer in vivo (extracranial) [2]	radioligand reaching the brain [2]	ability to cross the blood-brain barrier / brain uptake ([1]; iv, 60 min)
Cn1c(C(=O)OCc2ccc(I)cc2)cccc1=O [TRV7006, (p-Iodophenyl)methyl 1-methyl-6-oxo-1H-pyridine-2-carboxylate]	51.6 ± 3.4	2	4.72 ± 0.93	0.17 ± 0.03	–	–	–	–	–	–	–	–	–	–
COc1cccc(C(=O)OCc2ccc(I)cc2)n1 [TRV7019, (p-iodophenyl)methyl 6-methoxy-2-pyridinecarboxylate]	56.1 ± 3.5	–	1.77 ± 0.15	–	1	58	82	3.22 ± 0.55	1.77 ± 0..15 min	–	–	–	–	–
O=C(OCc1ccc(I)cc1)c1cccc(=O)[nH]1 [TRV7005, (p-Iodophenyl)methyl 6-oxo-1H-pyridine-2-carboxylate]	45.4 ± 2.4	–	7.21 ± 1.75	0.11 ± 0.02	–	–	–	6.51 ± 1.19	–	2	42.8	–	–	–
O=C(OCc1ccccc1)c1cccc(OCc2ccc(I)cc2)n1 [TRV7040, Benzyl 6-[(p-iodophenyl)methoxy]-2-pyridinecarboxylate]	–	–	–	–	–	–	–	–	–	–	–	avid uptake of TRV7040 is seen in the eye and hardarian glands	negligible radioligand reaching the brain	inability of TRV7040 to cross the BBB and reach the brain

Reference: patent US20230357154A1 (priority 2019, published 2023)
